Assay results taken from PubChem BioAssay AID1552 (Sanford-Burnham Center for Chemical Genomics, 2009).
Activity calls are given as the source filed them. The rule behind the calls is not given here.

What follows are molecules tested against Ubiquitin-conjugating enzyme E2 N (Homo sapiens) (UniProt P61088) (assay: NMR detection of UBE2N ligand binding – biophysical, purified protein (AID 1552)). Conditions: NMR binding to purified UBE2N.
Ubiquitin-conjugating enzyme E2 N (Homo sapiens), sequence (P61088 whole entry, looked up): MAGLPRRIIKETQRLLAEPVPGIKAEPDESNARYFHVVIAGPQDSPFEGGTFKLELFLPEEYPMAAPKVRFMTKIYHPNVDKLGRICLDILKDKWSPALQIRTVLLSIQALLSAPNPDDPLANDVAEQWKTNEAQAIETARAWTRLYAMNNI
For Fc1cccc(F)c1CN1CCN(c2ncccn2)CC1, the Kd was > 4 mM (inactive).
With Cc1ccc(/C=N/NC(N)=O)o1 the Kd was > 4 mM (inactive).
For O=C1CC(C(=O)O)c2ccccc21 (stereo not given), the Kd was > 4 mM (inactive).
In the case of CCOC(=O)c1[nH]c(C)cc1C, the Kd is reported as > 4 mM (inactive).
For CCN1CCc2c(sc(N)c2C(N)=O)C1, the Kd was > 4 mM (inactive).
In the case of O=C(O)c1cc2ccccc2s1, the Kd is reported as > 4 mM (inactive).
In the case of COCc1cc(C)nc2sc(C(=O)OC)c(N)c12, the Kd is reported as > 4 mM (inactive).
With O=C1NC(=O)C2C3C=CC(O3)C12 (stereo not given) the Kd was > 4 mM (inactive).
C[C@H]1C[C@@H](O)[C@]2(O)[C@@]13CC(=O)OC[C@@]2(C)[C@](C)(O)C(=O)C3 was tested, and the Kd was > 4 mM (inactive).
With COC(=O)[C@@H]1OC(=O)C2OC23[C@@]1(C)CCC1[C@@]2(C)CCC(=O)C(C)(C)C2C[C@@H](OC(C)=O)[C@]13C (stereo not given in full) the Kd was > 4 mM (inactive).
For O=C(NCCCO)c1ccncc1, the Kd was > 4 mM (inactive).
In the case of Cn1c(=O)c2[nH]cnc2n(C)c1=O, the Kd is reported as > 4 mM (inactive).
For O=C(O)C1CCN(c2ccc(C(F)(F)F)cn2)CC1, the Kd was > 4 mM (inactive).
In the case of Cc1nc(-c2cnccn2)sc1C(=O)O, the Kd is reported as > 4 mM (inactive).
O=S(=O)(NCc1ccco1)c1cccc2cccnc12 was tested, and the Kd was > 4 mM (inactive).
For O=C(Nc1ccc(Cl)cc1)N1CCCC1, the Kd was > 4 mM (inactive).
CC(=O)Nc1ccc(NC(=O)/C=C\C(=O)O)cc1 was tested, and the Kd was > 4 mM (inactive).
For O=c1[nH]cc(S(=O)(=O)N2CCc3ccccc32)c(=O)[nH]1, the Kd was > 4 mM (inactive).
With Cc1ccc(Nc2nc(N)nc(CC#N)n2)cc1 the Kd was > 4 mM (inactive).
For Cc1ccc(Nc2nnns2)cc1C, the Kd was > 4 mM (inactive).
With O=C(O)C1Cc2c([nH]c3ccccc23)CN1 (stereo not given) the Kd was > 4 mM (inactive).
For COc1ccc(C2CC(=O)c3ccc(OC)cc3O2)cc1 (stereo not given), the Kd was > 4 mM (inactive).
With CCOC(=O)c1c(C)nc2ncccn12 the Kd was > 4 mM (inactive).
In the case of Cc1nc2cc(NC(=O)Nc3nccs3)ccc2n1C, the Kd is reported as > 4 mM (inactive).
With COc1ccc(C)cc1S(=O)(=O)NC1CCCC1 the Kd was > 4 mM (inactive).
In the case of Clc1ncc2[nH]cnc2n1, the Kd is reported as > 4 mM (inactive).
In the case of O=C1NC(=O)C(=Cc2cccs2)C(=O)N1, the Kd is reported as > 4 mM (inactive).
For OC[C@H]1O[C@@](CO)(O[C@@H]2O[C@H](CO)[C@@H](O)[C@H](O)[C@H]2O)[C@@H](O[C@@H]2O[C@H](CO)[C@@H](O)[C@H](O)[C@H]2O)[C@@H]1O, the Kd was > 4 mM (inactive).
Cc1nn2c(=O)c(NC(=O)c3ccccc3)cnc2s1 was tested, and the Kd was > 4 mM (inactive).
In the case of O=C(Nc1ccccc1C(F)(F)F)N1CCCCCC1, the Kd is reported as > 4 mM (inactive).
In the case of c1ccc(Cc2nnc3sc(-c4ccncc4)nn23)cc1, the Kd is reported as > 4 mM (inactive).
O=C(O)c1csc(-c2cccs2)n1 was tested, and the Kd was > 4 mM (inactive).
CNC(=O)c1cc2cccc(OC)c2oc1=O was tested, and the Kd was > 4 mM (inactive).
In the case of COc1ccc(S(=O)(=O)N2CCOCC2)cc1C(C)C, the Kd is reported as > 4 mM (inactive).
With Nc1cccc2cccnc12 the Kd was > 4 mM (inactive).
With O=C(O)c1cccc(CSc2ncccn2)c1 the Kd was > 4 mM (inactive).
In the case of CC(=O)c1sc(NC(=O)C=C(C)C)nc1C, the Kd is reported as > 4 mM (inactive).
For CN(C)c1nc(N2CCOCC2)c2cnn(C)c2n1, the Kd was > 4 mM (inactive).
CN(C)CC(O)C1CCOC(C)(C)C1 (stereo not given) was tested, and the Kd was > 4 mM (inactive).
With CC(=O)Oc1ccc(/C=C/c2cc(OC(C)=O)cc(OC(C)=O)c2)cc1 the Kd was > 4 mM (inactive).
NC(=O)c1ccsc1NC(=O)c1ccco1 was tested, and the Kd was > 4 mM (inactive).
With O=C(Nc1ccncc1)Nc1ccc(F)cc1F the Kd was > 4 mM (inactive).
In the case of CCN1C(=O)N(CO)C2C1N(C)C(=O)N2C (stereo not given), the Kd is reported as > 4 mM (inactive).
With COc1cc(OC)c(OC)cc1C=O the Kd was > 4 mM (inactive).
In the case of O=[N+]([O-])c1c[n+]([O-])n(-c2ccccc2)n1, the Kd is reported as > 4 mM (inactive).
COc1cc([C@H]2Oc3cc([C@H]4Oc5cc(O)cc(O)c5C(=O)[C@@H]4O)ccc3O[C@@H]2CO)ccc1O was tested, and the Kd was > 4 mM (inactive).
For OC1CSc2ncnn2C1 (stereo not given), the Kd was > 4 mM (inactive).
With CC(=O)c1c(O)cc(C)n(Cc2ccccc2)c1=O the Kd was > 4 mM (inactive).
Cc1cc(O)c2c(c1O)C(=O)c1c(O)cc(C)c(O)c1C2=O was tested, and the Kd was > 4 mM (inactive).
CC1SC(=NC(=O)c2ccncc2)NC1=O (stereo not given) was tested, and the Kd was > 4 mM (inactive).
CN(C)c1ccc(/C=C2/NC(=S)NC2=O)cc1 was tested, and the Kd was > 4 mM (inactive).
O=C(Nc1cccnc1)c1ccc(Br)s1 was tested, and the Kd was > 4 mM (inactive).
For O=C1CCNc2cc3ccccc3cc21, the Kd was > 4 mM (inactive).
For CC(=O)Oc1cc(-c2coc3cc(OC(C)=O)c(OC(C)=O)c(OC(C)=O)c3c2=O)cc(OC(C)=O)c1OC(C)=O, the Kd was > 4 mM (inactive).
With COc1ccc2c(CC(=O)O)coc2c1 the Kd was > 4 mM (inactive).
With C=C1C2CC[C@@]3(C)[C@H](c4ccoc4)OC(=O)C[C@]13O[C@H]1C[C@H](OC(C)=O)C(C)(C)[C@H](CC(=O)OC)[C@@]21C the Kd was > 4 mM (inactive).
With CC(=O)c1sc2nc(N)nn2c1C the Kd was > 4 mM (inactive).
O=c1ccc(=O)n(CN2CCc3ccccc3C2)[nH]1 was tested, and the Kd was > 4 mM (inactive).
For CC(=O)Nc1cnn(-c2ccccc2)c(=O)c1Cl, the Kd was > 4 mM (inactive).
For O=C(CC1NC(=O)NC1=O)Nc1ccccc1 (stereo not given), the Kd was > 4 mM (inactive).
With COc1c(O)cccc1O the Kd was > 4 mM (inactive).
For CCC(=O)Oc1ccc(N2C(=O)CCC2=O)cc1, the Kd was > 4 mM (inactive).
For O=P(O)(Cc1ccccc1)c1ccccc1, the Kd was > 4 mM (inactive).
Cc1nc2nc(Cc3ccccc3)[nH]n2c(=O)c1Cl was tested, and the Kd was > 4 mM (inactive).
With CC(O)(C(=O)O)c1ccccc1 (stereo not given) the Kd was > 4 mM (inactive).
With c1ccc(-n2nnnc2Oc2cccc3cccnc23)cc1 the Kd was > 4 mM (inactive).
CC(C)c1ccc2c(c1)CCC1C(C)(C(N)=O)CCCC21C (stereo not given) was tested, and the Kd was > 4 mM (inactive).
O=C(Nc1nnc(-c2cccnc2)o1)c1ccccc1F was tested, and the Kd was > 4 mM (inactive).
S=C=NCc1ccccc1 was tested, and the Kd was > 4 mM (inactive).
In the case of CCNCC(O)c1ccc([N+](=O)[O-])cc1 (stereo not given), the Kd is reported as > 4 mM (inactive).
In the case of O=C(O)C12CC3CC(CC(O)(C3)C1)C2, the Kd is reported as > 4 mM (inactive).
NC(=O)C1CCN(C(=O)CN2CCc3ccccc32)CC1 was tested, and the Kd was > 4 mM (inactive).
With O=C1NNC(=O)C2C3c4ccccc4C(c4ccccc43)C12 (stereo not given) the Kd was > 4 mM (inactive).
For O=C(Nc1ccon1)c1cc2c(s1)CCCC2, the Kd was > 4 mM (inactive).
In the case of CC(C)C1COc2cc3oc(=O)ccc3cc2O1 (stereo not given), the Kd is reported as > 4 mM (inactive).
With Cc1nc2ccc(C(=O)N3CCSCC3)cc2s1 the Kd was > 4 mM (inactive).
O=C(O)c1[nH]nc2c1COc1ccccc1-2 was tested, and the Kd was > 4 mM (inactive).
CCn1c(-c2ccccc2)n[nH]c1=S was tested, and the Kd was > 4 mM (inactive).
For C/C=C1\[C@H]2C=C(C)C[C@]1(N)c1ccc(=O)[nH]c1C2, the Kd was > 4 mM (inactive).
For O=S(=O)(Cc1ccccc1Cl)Nc1ccccn1, the Kd was > 4 mM (inactive).
In the case of Nc1cc(C(=O)N2CCCC2)cc(C(=O)N2CCCC2)c1, the Kd is reported as > 4 mM (inactive).
In the case of Cc1nn(C)c(Cl)c1S(=O)(=O)N1CCOCC1, the Kd is reported as > 4 mM (inactive).
In the case of Cc1ccc(C)c(C(=O)n2cnnc2N)c1, the Kd is reported as > 4 mM (inactive).
For Cc1cc(C(=O)NCc2cccs2)c(C)o1, the Kd was > 4 mM (inactive).
With Cc1nc2nc(COc3ccccc3)nn2c(C)c1Cl the Kd was > 4 mM (inactive).
In the case of NC(=O)c1ccccc1NC(=O)C1CCCO1 (stereo not given), the Kd is reported as > 4 mM (inactive).
With CC(=O)NC12CC3CC(CC(O)(C3)C1)C2 the Kd was > 4 mM (inactive).
With Nc1ccc(S(=O)(=O)Nc2nccs2)cc1 the Kd was > 4 mM (inactive).
In the case of CS(=O)(=O)NC1CCN(Cc2ccccc2)CC1, the Kd is reported as > 4 mM (inactive).
In the case of Nc1ccc(-n2cccn2)cc1, the Kd is reported as > 4 mM (inactive).
In the case of COc1cc2c(cc1OC)[C@@H]1C(=O)c3ccc4c(c3O[C@@H]1CO2)C=CC(C)(C)O4, the Kd is reported as > 4 mM (inactive).
With Cc1nnsc1C(=O)O the Kd was > 4 mM (inactive).
CC(C)(C#N)O[C@@H]1O[C@H](CO)[C@@H](O)[C@H](O)[C@H]1O was tested, and the Kd was > 4 mM (inactive).
In the case of Cn1ncc(NC(=O)Nc2ccc(F)cc2F)c1C(N)=O, the Kd is reported as > 4 mM (inactive).
With Nc1ccccc1N1CCOCC1 the Kd was > 4 mM (inactive).
With CC(=O)O[C@H]1C[C@@H](OC(C)=O)C(C)(C)C2CC(=O)[C@]3(C)C(CC[C@@]4(C)[C@H](c5ccoc5)OC(=O)[C@H]5O[C@]543)[C@]21C (stereo not given in full) the Kd was > 4 mM (inactive).
With Cc1cc(N)on1 the Kd was > 4 mM (inactive).
For Cn1nc(C(=O)NCc2cccnc2)c2ccccc2c1=O, the Kd was > 4 mM (inactive).
COC(=O)c1ccc2nccnc2c1 was tested, and the Kd was > 4 mM (inactive).
For COc1ccc(C2=CC(=O)C=CC2=O)cc1, the Kd was > 4 mM (inactive).
COC(=O)N(c1ccccc1)P1(=S)OCCO1 was tested, and the Kd was > 4 mM (inactive).
In the case of O=c1[nH]nnc2sc3c(c12)CCCC3, the Kd is reported as > 4 mM (inactive).
In the case of Cc1cc(C)n(CC(=O)NC2CCCCC2)n1, the Kd is reported as > 4 mM (inactive).
In the case of CC1=C(C(N)=O)C(c2cccs2)C(C(N)=O)=C(C)N1, the Kd is reported as > 4 mM (inactive).
Cn1c(=O)c2c(ncn2C)n(C)c1=O was tested, and the Kd was > 4 mM (inactive).
In the case of Cc1cc(C(=O)NC(C)c2ccncc2)cs1 (stereo not given), the Kd is reported as > 4 mM (inactive).
In the case of CCOC(=O)c1ccc(Oc2ccc(C)nn2)cc1, the Kd is reported as > 4 mM (inactive).
With O=C1NC(=S)NC(=O)C1=Cc1ccco1 the Kd was > 4 mM (inactive).
Clc1ccc(-c2nnc3ccccn23)cc1 was tested, and the Kd was > 4 mM (inactive).
In the case of O=C(Cc1cccs1)N1CCOCC1, the Kd is reported as > 4 mM (inactive).
With CC(C)NC(=O)c1cc(=O)n(C)c(=O)n1C the Kd was > 4 mM (inactive).
With C[C@H](CCC(=O)O)[C@H]1CCC2C3C(CC[C@@]21C)[C@@]1(C)CC[C@@H](O)C[C@H]1C[C@H]3O (stereo not given in full) the Kd was > 4 mM (inactive).
With CC(CCC(=O)O)[C@H]1CCC2C3CC[C@@H]4C[C@H](O)CC[C@]4(C)C3C[C@H](O)[C@@]21C (stereo not given in full) the Kd was > 4 mM (inactive).
For C[C@@H]1O[C@@H](O[C@H]2C[C@@H](O)[C@]3(CO)C4C(CC[C@]3(O)C2)[C@@]2(O)CC[C@H](C3=CC(=O)OC3)[C@@]2(C)C[C@H]4O)[C@H](O)[C@H](O)[C@H]1O (stereo not given in full), the Kd was > 4 mM (inactive).
Cc1c(N=CN2CCOCC2)c(=O)n(C)c(=O)n1C was tested, and the Kd was > 4 mM (inactive).
